Here are results for two compounds from paper PMC13165411 (Molecules, 2026).

The nature of series [1]: Inhibitor stability under oxidative conditions by direct-infusion ESI-MS. The format is physicochemical. The following applies: 100 μM compound, 44 mM H2O2, 30 min, 37 °C, no HNE. As for the experimental part: Mass spectrometry analysis was performed using an Advion Interchim Scientific expression® Compact Mass Spectrometer (CMS) (Advion Interchim Scientific, Ithaca, NY, USA) equipped with an ESI source. Stock solutions of each inhibitor were prepared in DMSO and diluted in an assay buffer to a final concentration of 100 μM (DMSO ≤ 1% v/v). Aliquots were incubated in the presence or absence of H2O2 (44 mM final concentration) for 30 min at 37 °C, matching the oxidative treatment used in the enzymatic assays. After incubation, samples were diluted 1:1 (v/v) with water containing 0.1% formic acid and directly analyzed in both positive- and negative-ion mode. Mass spectra were analyzed with Mass Express software version 5.1.

In series [2] the target is T1, Human neutrophil elastase (HNE) (Homo sapiens, UniProt P08246).
T1 construct: purchased Abcam
T1 sequence (P08246 30-267): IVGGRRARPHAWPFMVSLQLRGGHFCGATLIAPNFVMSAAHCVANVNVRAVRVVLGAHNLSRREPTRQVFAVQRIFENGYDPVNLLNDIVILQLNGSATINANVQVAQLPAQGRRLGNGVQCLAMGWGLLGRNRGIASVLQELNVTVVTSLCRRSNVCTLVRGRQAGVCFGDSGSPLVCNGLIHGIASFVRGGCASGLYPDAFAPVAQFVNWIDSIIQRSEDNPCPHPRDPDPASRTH
Description: HNE colorimetric inhibition and steady-state kinetics assay (MeOSuc-Ala-Ala-Pro-Val-pNA), native conditions. The format is biochemical. The following applies: inhibitor 0.1-100 μM; for Mode of inhibition (Lineweaver-Burk plots): steady-state kinetics. As for the experimental part:
HNE activity was assessed through a colorimetric assay based on the hydrolysis of the synthetic peptide substrate MeOSuc-Ala-Ala-Pro-Val-pNA [37]. To determine the steady-state kinetic parameters, 0.4 μg of HNE (corresponding to a final concentration of approximately 0.05 μM) were added to an incubation buffer consisting of 50 mM Tris-HCl, pH 7.8 containing 500 mM NaCl. The reaction was initiated by adding a fixed volume (20 µL) of intermediate substrate working solutions to the enzyme–buffer mixture, reaching a final reaction volume of 200 µL. These working solutions were prepared by diluting a 20 mM substrate stock solution in DMSO with incubation buffer, ensuring that the final DMSO concentration remained constant at 1% (v/v) across all tested substrate concentrations (ranging from 0.075 to 2.4 mM). This approach was applied to all samples, including blanks, to maintain a uniform solvent environment. The mixtures were incubated at 37 °C for 45 min. […] The reaction was then quenched with 20 μL of 0.45 M trichloroacetic acid (TCA). After cooling on ice for 30 min, the samples were centrifuged at 11,500 rpm for 10 min to remove precipitated proteins. The concentration of p-nitroaniline (p-NA) released into the supernatant was determined by measuring the absorbance at 410 nm. All assays were performed in triplicate, and the kinetic parameters were determined by fitting the experimental data to the Michaelis–Menten equation using GraphPad Prism 8.0 software (GraphPad Software, San Diego, CA, USA).
Stock solutions of both inhibitors were prepared in DMSO and diluted with incubation buffer to obtain intermediate working solutions. A fixed volume of these working solutions was added to each reaction mixture so that the final DMSO concentration remained constant at 1% (v/v) across all inhibitor concentrations. […]
Subsequently, the inhibition constants (Ki) were determined independently from IC50 values by performing steady-state kinetic assays at varying concentrations of both substrate and inhibitors. […]

In series [3] the target is T2, HNE under oxidizing conditions (oxidized HNE) (Homo sapiens, UniProt P08246).
T2 construct: purchased Abcam
T2 sequence (P08246 30-247 limits assumed): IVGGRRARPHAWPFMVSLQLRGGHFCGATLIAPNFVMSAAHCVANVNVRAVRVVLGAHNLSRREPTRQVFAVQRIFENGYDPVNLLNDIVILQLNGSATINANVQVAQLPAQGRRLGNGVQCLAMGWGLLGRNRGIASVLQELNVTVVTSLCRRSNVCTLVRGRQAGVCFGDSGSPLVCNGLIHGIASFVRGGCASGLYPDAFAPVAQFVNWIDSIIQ
Description: HNE inhibition assay under oxidizing conditions (HNE pre-incubated with 44 mM H2O2). The format is biochemical. Conditions: for remaining activity at 100 µM: HNE under oxidizing conditions (44 mM H2O2), maximum inhibitor concentration 100 μM, read-out: Residual Activity at Maximum Inhibitor Concentration (%). How it is done: HNE activity under oxidative conditions was determined using the colorimetric assay described above. Briefly, HNE was pre-incubated with 1 μL of 30% (w/v) H2O2 (final concentration 44 mM in a total reaction volume of 200 μL) for 60 min at 37 °C. The oxidative conditions used in this study were designed to promote cumulative oxidative modifications of HNE rather than to reproduce physiological ROS concentrations, allowing simulation of oxidative stress in chronically inflamed tissues where repeated ROS exposure leads to progressive protein oxidation. The kinetic parameters of oxidized HNE were determined as described above. Subsequently, inhibition assays were performed by initiating the reaction with substrate (final concentration 0.15 mM) in the presence of increasing concentrations of inhibitor (0.1–100 μM). The reaction mixtures were then incubated at 37 °C for 45 min and then terminated by the addition of 20 μL of 0.45 M TCA. Samples were cooled on ice, centrifuged, and analyzed as described in Section 2.4.
Residual enzymatic activity (%) was calculated relative to HNE activity in the absence of inhibitors, set as 100%. The lowest observed activity under the experimental conditions was taken as the maximal inhibition achieved within this assay range.

A short description of series [4]: Cytotoxicity on A549 cell monolayers (resazurin reduction assay). The format is cell-based. Conditions: human, A549 cells (confluent monolayer), 0.1 to 1000 µM, 16 h exposure, read-out: Cell viability (% of untreated control). As for the experimental part: Cells were obtained from the American Type Culture Collection (ATCC, Manassas, VA, USA) and cultured according to the supplier’s instructions. Cells were maintained in DMEM supplemented with 10% fetal bovine serum (FBS) and seeded into sterile 96-well plates at a density of 1 × 10^5 cells per well, allowing for the formation of a confluent monolayer prior to treatment. After 24 h incubation at 37 °C (5% CO2), the culture medium was replaced with 200 μL of fresh medium containing ten-fold dilutions of the test compounds, ranging from 0.1 to 1000 µM.
After a 16 h exposure period, cell viability was assessed via the resazurin reduction assay. Briefly, 30 μL of a 0.01% resazurin solution (Sigma-Aldrich, St. Louis, MO, USA) was added to each well and incubated for 4 h at 37 °C. The reduction of resazurin to resorufin by metabolically active cells was quantified using a ClarioSTAR microplate reader (BMG Labtech, Ortenberg, Germany), with excitation and emission wavelengths set at 520 nm and 580 nm, respectively. All experiments were performed in triplicate, and cell viability was expressed as a percentage relative to untreated control wells.

“And” between values parts separate entries of the source, which are not always exact repeats. Equal values may be shown once.

One may read the IC50 as the concentration that gives 50% inhibition. The term viability denotes the share of living cells, or the viability signal relative to a control. With `Cc1c(-c2ccnn2C)cc(C(=O)NCc2ccc(S(C)(=O)=O)cn2)c(=O)n1-c1cccc(C(F)(F)F)c1` [Alvelestat], the “Chemical stability under oxidizing conditions (ESI-MS spectra vs untreated control)” value in series [1] is given as “no additional peaks”. The “Mode of inhibition (Lineweaver-Burk plots)” value in series [2] is listed as “competitive inhibition”. The 50% inhibitory concentration (IC50) is 2800 nM and 2840 nM in series [2] (substrate 0.15 mM, 37 °C, 45 min, read-out: IC50 against HNE activity); 4000 ± 410 nM in series [3] (HNE pre-incubated with 44 mM H2O2, 60 min, 37 °C, substrate 0.15 mM). Moreover, in series [3], the remaining activity at 100 µM is less than 20%. For the same compound, the viability at 16 h in series [4] is roughly 100%.

`CC(C)(C)C(=O)Oc1ccc(S(=O)(=O)Nc2ccccc2C(=O)NCC(=O)O)cc1` [Sivelestat]: the “Chemical stability under oxidizing conditions (ESI-MS spectra vs untreated control)” value in series [1] is reported as “no additional peaks”. In addition, the “Mode of inhibition (Lineweaver-Burk plots)” value in series [2] was “competitive inhibition”. In series [3] (100 μM inhibitor, HNE pre-treated with 44 mM H2O2), the “Inhibition of oxidized HNE at the highest tested concentration” value was “failed to achieve significant inhibition”. In addition, in series [3], the remaining activity at 100 µM is greater than 80%. Besides, in series [4], the viability at 16 h was roughly 100%.
